Test systems include SW-620 colon; OVCAR-4 ovarian; UACC-62 melanoma; OVCAR-8 ovarian; 786-0 renal; MALME-3M melanoma; U251 CNS; CAKI-1 renal; LOX IMVI melanoma; K-562 leukemia.
Assay in all cases: NCI anticancer screen, dose series, 48 h

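Growth conditions: 96-well plates. Treatment: test compound, 48 hours, 5 concentrations. Analysis: linear interpolation between bracketing concentrations; unreached endpoints set to highest concentration. At the GI50, growth is halved. TGI: concentration producing complete growth inhibition.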 Where only a bound is given, the exact number is not on record here.

In the case of `COC(=O)C(C(=O)C(=O)Nc1ccc(OC)cc1[N+](=O)[O-])c1nc2cc(C)c(C)cc2[nH]c1=O` (centres undefined), the TGI with SW-620 colon, in the assay on OVCAR-4 ovarian, in the assay with UACC-62 melanoma, with OVCAR-8 ovarian, in the assay on 786-0 renal and in the assay on MALME-3M melanoma was greater than 100 µM in each case. In addition, the TGI with U251 CNS, in the assay with CAKI-1 renal, with LOX IMVI melanoma and in the assay on K-562 leukemia was greater than 100 µM each time.

In the case of `COc1cc(CC(C(=O)O)C(=O)O)c(OC)cc1CC(C(=O)O)C(=O)O`, the TGI in the assay with SW-620 colon, in the assay on OVCAR-4 ovarian, in the assay on UACC-62 melanoma, in the assay with OVCAR-8 ovarian, in the assay with 786-0 renal and in the assay on MALME-3M melanoma was greater than 100 µM in each case. Further, the TGI in the assay with U251 CNS, in the assay on CAKI-1 renal, in the assay with LOX IMVI melanoma and in the assay on K-562 leukemia was greater than 100 µM throughout.

In the case of `COc1ccc(/C=c2/sc3n(c2=O)NC(c2ccc(Cl)cc2)NN=3)cc1` (centres undefined), the TGI in the assay with SW-620 colon, in the assay on OVCAR-4 ovarian, in the assay with UACC-62 melanoma, with OVCAR-8 ovarian, in the assay on 786-0 renal and with MALME-3M melanoma was greater than 100 µM in each case. The TGI in the assay on U251 CNS, in the assay on CAKI-1 renal, with LOX IMVI melanoma and in the assay with K-562 leukemia was greater than 100 µM throughout.

In the case of `CC(C)(C)NC/C(=C\c1ccccc1)C(=O)c1ccccc1`, the GI50 is 1220 nM with SW-620 colon; 5.6 µM in the assay on OVCAR-4 ovarian; 1510 nM in the assay on UACC-62 melanoma; 2820 nM in the assay with OVCAR-8 ovarian; 1950 nM in the assay with 786-0 renal; 2040 nM in the assay on MALME-3M melanoma. Besides, the GI50 was 2300 nM in the assay with U251 CNS, 1880 nM in the assay on CAKI-1 renal, 1300 nM in the assay on LOX IMVI melanoma and 2240 nM with K-562 leukemia. The TGI in the assay on SW-620 colon stood at 3.5 µM; with OVCAR-4 ovarian it was 19.6 µM; in the assay on UACC-62 melanoma, 4.91 µM; in the assay with OVCAR-8 ovarian it was 10.1 µM; with 786-0 renal, 4.01 µM; in the assay with MALME-3M melanoma, 4.88 µM. Besides, the TGI with U251 CNS worked out at 6.41 µM; with CAKI-1 renal it was 6.36 µM; in the assay on LOX IMVI melanoma it was 2.89 µM; in the assay on K-562 leukemia, 12.4 µM.

Consider `O=S(=O)(Nc1ccc2ccccc2c1)c1ccc(-c2cnc(C3CC3)o2)cc1`, for which the GI50 in the assay on SW-620 colon was 468 nM; in the assay on OVCAR-4 ovarian it was 3.22 µM; with UACC-62 melanoma, 914 nM; in the assay with OVCAR-8 ovarian, 2880 nM; in the assay on 786-0 renal, 3100 nM; with MALME-3M melanoma, 999 nM. In addition, the GI50 was 1250 nM in the assay on U251 CNS, 539 nM with CAKI-1 renal, 725 nM in the assay with LOX IMVI melanoma and 394 nM with K-562 leukemia. Moreover, the TGI with SW-620 colon was found to be 18.3 µM; in the assay with OVCAR-4 ovarian, 79.9 µM; with UACC-62 melanoma, 14.5 µM; in the assay with OVCAR-8 ovarian, 67.1 µM; with 786-0 renal it was 18.7 µM; in the assay on MALME-3M melanoma, 24 µM. For the same molecule, the TGI in the assay on U251 CNS was 15.7 µM; in the assay with CAKI-1 renal it was 38 µM; in the assay on LOX IMVI melanoma it was 17.1 µM; in the assay with K-562 leukemia, greater than 100 µM.

`O=C(Cn1c(C(=O)c2ccccc2)nc2ccccc21)c1ccc(F)cc1`: the GI50 in the assay with SW-620 colon is 3280 nM; in the assay with OVCAR-4 ovarian it was 24.6 µM; in the assay on UACC-62 melanoma it was 11700 nM; with OVCAR-8 ovarian, 37400 nM; with 786-0 renal, 20800 nM; in the assay with MALME-3M melanoma, 11100 nM. In addition, the GI50 in the assay with U251 CNS was 4110 nM; in the assay on LOX IMVI melanoma, 7260 nM; in the assay with K-562 leukemia, 2860 nM. For the same molecule, the TGI with SW-620 colon, with OVCAR-4 ovarian, in the assay with UACC-62 melanoma, with OVCAR-8 ovarian, in the assay with 786-0 renal and with MALME-3M melanoma was greater than 100 µM in each case. The TGI in the assay on U251 CNS is greater than 100 µM; in the assay with CAKI-1 renal it was greater than 30.9 µM; in the assay with LOX IMVI melanoma, greater than 100 µM; in the assay with K-562 leukemia, greater than 100 µM.

For the molecule `Cc1nc(Nc2ccccc2)sc1C(=O)CC(=O)C(=O)NC12CC3CC(CC(C3)C1)C2`, the TGI in the assay with SW-620 colon, in the assay with OVCAR-4 ovarian, in the assay with UACC-62 melanoma, in the assay with OVCAR-8 ovarian, with 786-0 renal and in the assay on MALME-3M melanoma was greater than 100 µM in each case. Further, the TGI in the assay on U251 CNS, in the assay with CAKI-1 renal, in the assay on LOX IMVI melanoma and with K-562 leukemia was greater than 100 µM throughout.

For `Nc1nc(N)c(N=Nc2ccc(C(=O)O)c(O)c2)c(N)n1`, the TGI in the assay with SW-620 colon was greater than 100 µM; with OVCAR-4 ovarian it was 35.1 µM; in the assay on UACC-62 melanoma it was greater than 100 µM; in the assay on OVCAR-8 ovarian, greater than 100 µM; in the assay on 786-0 renal, greater than 100 µM; in the assay on MALME-3M melanoma, greater than 100 µM. Moreover, the TGI in the assay on U251 CNS, with CAKI-1 renal, in the assay with LOX IMVI melanoma and with K-562 leukemia was greater than 100 µM in each case.

For `CN(O)C(=S)c1ccccc1`, the TGI was 14.6 µM with SW-620 colon; 19.6 µM with OVCAR-4 ovarian; 6.21 µM in the assay with UACC-62 melanoma; 33.2 µM in the assay on OVCAR-8 ovarian; 14.3 µM in the assay on 786-0 renal; greater than 100 µM with MALME-3M melanoma. Moreover, the TGI is greater than 100 µM in the assay with U251 CNS, 81.3 µM in the assay on CAKI-1 renal, 7.76 µM with LOX IMVI melanoma and greater than 100 µM in the assay with K-562 leukemia.

On to `CCC[CH2][Sn]([CH2]CCC)([O]C(=O)c1cc(F)cc(F)c1)[O][Sn]([CH2]CCC)([CH2]CCC)[O]C(=O)c1cc(F)cc(F)c1`, for which the GI50 in the assay with SW-620 colon was 626 nM; with OVCAR-4 ovarian, 2.04 µM; with UACC-62 melanoma, 1400 nM; in the assay with OVCAR-8 ovarian, 1280 nM; in the assay with 786-0 renal, 1270 nM; with MALME-3M melanoma it was 889 nM. Further, the GI50 in the assay with U251 CNS was 1080 nM; in the assay with CAKI-1 renal, 663 nM; in the assay on LOX IMVI melanoma, 1050 nM; in the assay on K-562 leukemia it was 256 nM. Further, the TGI in the assay with SW-620 colon came out at 1.92 µM; with OVCAR-4 ovarian it was 3.51 µM; with UACC-62 melanoma, 2.7 µM; in the assay with OVCAR-8 ovarian it was 2.54 µM; in the assay on 786-0 renal it was 2.53 µM; in the assay with MALME-3M melanoma it was 2.18 µM. Moreover, the TGI in the assay with U251 CNS was 2.28 µM; in the assay on CAKI-1 renal, 1.95 µM; in the assay with LOX IMVI melanoma it was 2.35 µM; in the assay on K-562 leukemia, 1.12 µM.

The values above are taken from PubChem BioAssay (NCI).
